Earlier results in article PMC10591956 (Journal of controlled release : official journal of the …, 2023).

System: intraocular pressure (IOP)
Conditions: single intracameral injection, normotensive rabbits

## Brc1c(NC2=NCCN2)ccc2nccnc12 [brimonidine]
  duration of IOP reduction: 7 days
